Test system: B. subtilis
Assay: Proteome analysis via 2D-PAGE with 35S-methionine labelling of newly synthesized proteins
Format: cell-based, Bacillus subtilis
Conditions: 3 μg/ml DS50, 0.15 μg/ml nocathiacin I, 8 μg/ml GE2270 A or 50 μg/ml kirromycin, 15 min
Experimental: B. subtilis was grown to an OD500 of 0.35 in BMM and treated with 3 μg/ml DS50 or 12 μg/ml biotin-DS50 for 15 min or left untreated as control. The following concentrations were used for the reference antibiotics: 0.15 μg/ml nocathiacin I, 8 μg/ml GE2270 A or 50 μg/ml kirromycin. Radioactive labelling of newly synthesized proteins during antibiotic treatment with ^35S-methionine and 2D-PAGE analysis were essentially performed as described^38.
Protein spots were cut out of the gel and decolorized twice in a washing solution (20 mM ammonium bicarbonate, 30% acetonitrile). Disulfide bridges in proteins from gel pieces obtained from 1D-PAGE gels were reduced with 10 mM DTT in wash solution at 60° C. for 45 min. Cysteine alkylation was then performed with 50 mM iodoacetamide (IAA) in a washing solution for 25 min at room temperature in the dark. The gel pieces were washed twice with washing solution for 5 min at room temperature. The reduction and alkylation steps were omitted for samples from 2D-PAGE experiments. […] Gradient for identification of proteins from 1D-PAGE: initial, 0.5% eluant B (0.1% formic acid (FA) in acetonitrile); 1 min, 0.5% eluant B; 45 min, 60% eluant B; 48 min, 90% eluant B; 49 min, 99% eluant B; 51 min, 99% eluant B; 52 min, 0.5% eluant B; 60 min, 0.5% eluant B. 0.1% FA in water served as eluent A. Gradient for the identification of proteins from 2D-PAGE: initial, 0.5% eluent B; 22 min, 50% eluent B; 23 min, 99% eluent B; 26 min, 99% eluent B; 27 min, 0.5% eluent B; 30 min, 0.5% eluent B. Continuous MS^E spectra were recorded in a mass range of 50-1200 m/z and with a scanning time of […] in positive resolution mode with the following settings: Capillary voltage, 1.7 kV; cone voltage, 30 V; source temperature, 100° C.; cone gas flow, 50 l/h; desolvation gas flow, 500 l/h; desolvation temperature, 150° C. […] For protein identification, a database with 4180 proteins of B. subtilis was used (NCBI reference sequence: NC_000964.3, manually added: trypsin, keratin, quantification standard PhosB). […]

| Molecule | protein biosynthesis compared to control conditions |
| --- | --- |
| CNC(=O)C[C@@H]1NC(=O)c2csc(n2)-c2ccc(-c3nc(C4=N[C@H](C(=O)N5CCC[C@H]5C(N)=O)CO4)cs3)nc2-c2csc(n2)-c2csc(n2)[C@H]([C@@H](O)c2ccccc2)NC(=O)CNC(=O)c2nc(sc2COC)[C@H](C(C)C)NC(=O)c2nc1sc2C [GE2270 A] | −65% |
| C=C(NC(=O)c1csc(-c2nc3c(cc2O)-c2nc(cs2)C(=O)N[C@@H]([C@@H](C)O)C(=O)N/C(=C(\C)OC)c2nc(cs2)C(=O)N[C@@H]2c4nc(cs4)C(=O)N[C@@H](COC(=O)c4c5c6c(cccc6n4O)COC(=O)[C@@H](O[C@H]4C[C@](C)(O)[C@H](N(C)C)[C@H](C)O4)[C@H]2OC5)c2nc-3cs2)n1)C(N)=O.O=C(O)C(F)(F)F [nocathiacin I] | −15% |
| kirromycin | not affected |

From patent US11267831B2, “EF-Tu-binding metal-containing antibiotic” (Ruhr-Universitaet Bochum, priority 2017, dated 2022)
